Counter-ions that a name gives are not always drawn.
Test: Solution state stability of the hemi calcium salt of Formula I at various pH conditions
Format: physicochemical
Description: Solution state stability studies were performed on 7-[2-(4-fluorophenyl)-5-isopropyl-3-phenyl-4-[(4-hydroxymethylphenylamino) carbonyl]-pyrrol- 1-yl]-3,5-dihydroxy-heptanoic acid by solubilizing the hemi calcium salt of Formula I at a range of pH conditions and storing the solution for one or two weeks under different temperature conditions.

## CC(C)c1c(C(=O)Nc2ccc(CO)cc2)c(-c2ccccc2)c(-c2ccc(F)cc2)n1CCC(O)CC(O)CC(=O)O (centres unmarked) [7-[2-(4-fluorophenyl)-5-isopropyl-3-phenyl-4-[(4-hydroxymethylphenylamino)carbonyl]-pyrrol-1-yl]-3,5-dihydroxy-heptanoic acid]
Conclusion from Table 1, more particularly pH 4.5 to pH 12
  pH at which the compound is stable in solution: ≥ 4.5

## CC(C)c1c(C(=O)Nc2ccc(CO)cc2)c(-c2ccccc2)c(-c2ccc(F)cc2)n1CCC(O)CC(O)CC(=O)O (centres unmarked) [hemi calcium salt of Formula I, 7-[2-(4-fluorophenyl)-5-isopropyl-3-phenyl-4-[(4-hydroxymethylphenylamino)carbonyl]-pyrrol-1-yl]-3,5-dihydroxy-heptanoic acid hemicalcium salt]
pH 2.0 Buffer, 1 week, 2-8 °C
  Drug Content: 0.21 mg/mL
pH 2.0 Buffer, 1 week, 25 °C
  Drug Content: 0.22 mg/mL
pH 2.0 Buffer, 1 week, 50 °C
  Drug Content: 0.14 mg/mL
pH 2.0 Buffer, 2 Weeks, 2-8 °C
  Drug Content: 0.19 mg/mL
pH 2.0 Buffer, 2 Weeks, 25 °C
  Drug Content: 0.18 mg/mL
pH 2.0 Buffer, 2 Weeks, 50 °C
  Drug Content: 0.09 mg/mL
pH 2.0 Buffer, Initial
  Drug Content: 0.42 mg/mL
pH 4.5 Buffer, 1 week, 2-8 °C
  Drug Content: 0.50 mg/mL
pH 4.5 Buffer, 1 week, 25 °C
  Drug Content: 0.50 mg/mL
pH 4.5 Buffer, 1 week, 50 °C
  Drug Content: 0.43 mg/mL
pH 4.5 Buffer, 2 Weeks, 2-8 °C
  Drug Content: 0.50 mg/mL
pH 4.5 Buffer, 2 Weeks, 25 °C
  Drug Content: 0.48 mg/mL
pH 4.5 Buffer, 2 Weeks, 50 °C
  Drug Content: 0.38 mg/mL
pH 4.5 Buffer, Initial
  Drug Content: 0.51 mg/mL
pH 5.5 Buffer, 1 week, 2-8 °C
  Drug Content: 0.50 mg/mL
pH 5.5 Buffer, 1 week, 25 °C
  Drug Content: 0.50 mg/mL
pH 5.5 Buffer, 1 week, 50 °C
  Drug Content: 0.45 mg/mL
pH 5.5 Buffer, 2 weeks, 2-8 °C
  Drug Content: 0.50 mg/mL
pH 5.5 Buffer, 2 weeks, 25 °C
  Drug Content: 0.48 mg/mL
pH 5.5 Buffer, 2 weeks, 50 °C
  Drug Content: 0.40 mg/mL
pH 5.5 Buffer, Initial
  Drug Content: 0.50 mg/mL
pH 7.5 Buffer, 1 week, 2-8 °C
  Drug Content: 0.50 mg/mL
pH 7.5 Buffer, 1 week, 25 °C
  Drug Content: 0.50 mg/mL
pH 7.5 Buffer, 1 week, 50 °C
  Drug Content: 0.45 mg/mL
pH 7.5 Buffer, 2 Weeks, 2-8 °C
  Drug Content: 0.49 mg/mL
pH 7.5 Buffer, 2 Weeks, 25 °C
  Drug Content: 0.49 mg/mL
pH 7.5 Buffer, 2 Weeks, 50 °C
  Drug Content: 0.37 mg/mL
pH 7.5 Buffer, Initial
  Drug Content: 0.50 mg/mL
pH 9.0 Buffer, 1 week, 2-8 °C
  Drug Content: 0.49 mg/mL
pH 9.0 Buffer, 1 week, 25 °C
  Drug Content: 0.49 mg/mL
pH 9.0 Buffer, 1 week, 50 °C
  Drug Content: 0.45 mg/mL
pH 9.0 Buffer, 2 Weeks, 2-8 °C
  Drug Content: 0.45 mg/mL
pH 9.0 Buffer, 2 Weeks, 25 °C
  Drug Content: 0.47 mg/mL
pH 9.0 Buffer, 2 Weeks, 50 °C
  Drug Content: 0.42 mg/mL
pH 9.0 Buffer, Initial
  Drug Content: 0.49 mg/mL
pH 10.0 Buffer, 1 week, 2-8 °C
  Drug Content: 0.49 mg/mL
pH 10.0 Buffer, 1 week, 25 °C
  Drug Content: 0.49 mg/mL
pH 10.0 Buffer, 1 week, 50 °C
  Drug Content: 0.45 mg/mL
pH 10.0 Buffer, 2 Weeks, 2-8 °C
  Drug Content: 0.49 mg/mL
pH 10.0 Buffer, 2 Weeks, 25 °C
  Drug Content: 0.47 mg/mL
pH 10.0 Buffer, 2 Weeks, 50 °C
  Drug Content: 0.44 mg/mL
pH 10.0 Buffer, Initial
  Drug Content: 0.49 mg/mL
pH 12.0 Buffer, 1 week, 2-8 °C
  Drug Content: 0.49 mg/mL
pH 12.0 Buffer, 1 week, 25 °C
  Drug Content: 0.49 mg/mL
pH 12.0 Buffer, 1 week, 50 °C
  Drug Content: 0.45 mg/mL
pH 12.0 Buffer, 2 Weeks, 2-8 °C
  Drug Content: 0.49 mg/mL
pH 12.0 Buffer, 2 Weeks, 25 °C
  Drug Content: 0.48 mg/mL
pH 12.0 Buffer, 2 Weeks, 50 °C
  Drug Content: 0.44 mg/mL
pH 12.0 Buffer, Initial
  Drug Content: 0.49 mg/mL

Reference: US20070238716A1, “STATIN STABILIZING DOSAGE FORMULATIONS” (priority 2006, published 2007)
